# Measured values: patent publication US6664256B1, “Phenylpyridazine compounds and medicines containing the same” (Kowa Co., Ltd., priority 2000, dated 2003)
# Test system: not given
# Assay: not given
# Settings: not given
row,Structure (SMILES),melting point
1,"CS(=O)(=O)c1ccc(-c2nnc(Oc3ccc(F)cc3F)cc2-c2ccc(Cl)cc2)cc1 [Example 34, 4-(4-chlorophenyl)-6-(2,4-difluorophenoxy)-3-[4-(methylsulfonyl)phenyl]pyridazine]",115.2 to 117.3 °C
2,"COc1ccc(-c2nnc(Oc3ccc(F)cc3F)cc2-c2ccccc2)cc1 [Example 26, 6-(2,4-difluorophenoxy)-3-(4-methoxyphenyl)-4-phenylpyridazine]",169 to 169.9 °C
3,"CSc1ccc(-c2nnc(Oc3ccc(F)cc3F)cc2-c2ccc(F)cc2)cc1 [Example 29, 6-(2,4-difluorophenoxy)-4-(4-fluorophenyl)-3-[4-(methylthio)phenyl]pyridazine]",140.6 to 143.4 °C
4,"Cc1cc(-c2ccc(Cl)cc2)c(-c2ccc(S(C)(=O)=O)cc2)nn1 [Example 50, 4-(4-chlorophenyl)-6-methyl-3-[4-(methylsulfonyl)phenyl]pyridazine]",205 to 209 °C
5,"CSc1ccc(-c2nnc(Sc3ccccc3)cc2-c2ccc(Sc3ccccc3)cc2)cc1 [Example 32, 3-[4-(methylthio)phenyl]-6-phenylthio-4-[4-(phenylthio)phenyl]pyridazine]",53.3 to 56.2 °C
6,"CSc1ccc(-c2nnc(Cl)cc2-c2ccc(Cl)cc2)cc1 [Example 31, 6-chloro-4-(4-chlorophenyl)-3-[4-(methylthio)phenyl]pyridazine]",145 to 145.8 °C
7,"CSc1ccc(-c2nnc(Cl)cc2-c2ccc(F)cc2)cc1 [Example 28, 6-chloro-4-(4-fluorophenyl)-3-[4-(methylthio)phenyl]pyridazine]",130.9 to 131.4 °C
8,"COc1ccc(-c2nnc(Oc3cccc(F)c3F)cc2-c2ccccc2)cc1 [Example 25, 6-(2,3-difluorophenoxy)-3-(4-methoxyphenyl)-4-phenylpyridazine]",155.2 to 156.6 °C
9,"CSc1ccc(-c2nnc(Cl)cc2-c2ccccc2)cc1 [Example 59, 6-chloro-3-[4-(methylthio)phenyl]-4-phenylpyridazine]",157.7 to 158.3 °C
10,"COc1ccc(-c2cc(NCc3ccccc3)nnc2-c2ccc(OC)cc2)cc1 [Example 41, 6-benzylamino-3,4-bis(4-methoxyphenyl)pyridazine]",125.4 to 126.3 °C
11,"CSc1ccc(-c2nnc(Oc3ccc(F)cc3F)cc2-c2ccc(Cl)cc2)cc1 [Example 33, 4-(4-chlorophenyl)-6-(2,4-difluorophenoxy)-3-[4-(methylthio)phenyl]pyridazine]",163.2 to 164 °C
12,"CSc1ccc(-c2nnc(SC)cc2-c2ccc(F)cc2)cc1 [Example 46, 4-(4-fluorophenyl)-6-methylthio-3-[4-(methylthio)phenyl]pyridazine]",165.8 to 169.5 °C
13,"CS(=O)(=O)c1ccc(-c2nnc(Cl)cc2-c2ccc(Cl)cc2)cc1 [Example 60, 6-chloro-4-(4-chlorophenyl)-3-[4-(methylsulfonyl)phenyl]pyridazine]",189.6 to 190.5 °C

# Test system: interleukin-1β production
# Assay: Inhibitory activity against interleukin-1β production (LPS-stimulated HL-60 cells, ELISA)
# Assay type: cell-based
# Settings: Homo sapiens, 72 h, lipopolysaccharide 10 μg/ml, culturing for 3 days, interleukin-1β determined by ELISA, read-out: IL-β (IC50 μM)
# Description: Experiment 1 (Inhibitory Activity against Interleukin-1β Production)
# Inhibitory activity of the compounds of the present invention, which are represented by the formula (I), against interleukin-1β production was tested by the following experiment:
# HL-60 cells were cultured for 4 days until confluence on RPMI 1640 medium with 10% fetal bovine serum (FBS) added thereto. The medium was centrifuged. The supernatant was discarded, and the cells were then suspended at 1×10^6 cells/ml on RPMI 1640 medium with 3% FBS, and lipopolysaccharide was added to give a final concentration of 10 μg/ml . The culture was inoculated at 1 ml/well to a 24-well plate. A test compound was added at 1 μl/well, followed by culturing for 3 days. Three days later, the amount of interleukin-1β in each culture was determined by ELISA. Each IC50 value was determined by a comparison in yield with a control to which no test compound was added.
row,Structure (SMILES),IC50
1,"COc1ccc(-c2nnc(Oc3c(F)c(F)c(F)c(F)c3F)cc2-c2ccccc2)cc1 [Example 27, 3-(4-methoxyphenyl)-6-(2,3,4,5,6-pentafluorophenoxy)-4-phenylpyridazine]",0.01 µM
2,"COc1ccc(-c2cc(Oc3ccc([N+](=O)[O-])cc3)nnc2-c2ccc(OC)cc2)cc1 [Example 17, 3,4-bis(4-methoxyphenyl)-6-(4-nitrophenoxy)pyridazine]",0.63 µM
3,"COc1ccc(-c2nnc(Oc3ccc(F)cc3F)cc2-c2ccncc2)cc1 [Example 23, 6-(2,4-difluorophenoxy)-3-(4-methoxyphenyl)-4-(4-pyridyl)pyridazine]",0.96 µM
4,"COc1ccc(-c2cc(C#N)nnc2-c2ccc(OC)cc2)cc1 [Example 51, 3,4-bis-(4-methoxyphenyl)-6-cyanopyridazine]",0.09 µM
5,"COc1ccc(-c2nnc(Oc3ccc(F)cc3F)cc2-c2ccccc2)cc1 [Example 26, 6-(2,4-difluorophenoxy)-3-(4-methoxyphenyl)-4-phenylpyridazine]",0.31 µM
6,"CSc1ccc(-c2nnc(Sc3ccccc3)cc2-c2ccc(Sc3ccccc3)cc2)cc1 [Example 32, 3-[4-(methylthio)phenyl]-6-phenylthio-4-[4-(phenylthio)phenyl]pyridazine]",0.94 µM
7,"COc1ccc(-c2cc(Cl)nnc2-c2ccc(OC)cc2)cc1 [Comp. Comp'd 1, reference compound]",32.1 µM
8,"COc1ccc(Oc2cc(-c3ccc(OC)cc3)c(-c3ccc(OC)cc3)nn2)cc1 [Example 15, 3,4-bis(4-methoxyphenyl)-6-(4-methoxyphenoxy)pyridazine]",0.45 µM
9,"COc1ccc(-c2cc(Sc3cc(Cl)c(Cl)c(Cl)c3)nnc2-c2ccc(OC)cc2)cc1 [Example 14, 3,4-bis(4-methoxyphenyl)-6-(3,4,5-trichlorophenylthio)pyridazine]",0.2 µM
10,"COc1ccc(-c2cc(Oc3cccc(C#N)c3)nnc2-c2ccc(OC)cc2)cc1 [Example 19, 3,4-bis(4-methoxyphenyl)-6-(3-cyanophenoxy)pyridazine]",0.16 µM
11,"COc1ccc(-c2nnc(C#N)cc2-c2ccccc2)cc1 [Example 66, 6-cyano-3-(4-methoxyphenyl)-4-phenylpyridazine]",0.68 µM
12,"COc1ccc(-c2cc(Oc3cccc(F)c3F)nnc2-c2ccc(OC)cc2)cc1 [Example 5, 3,4-bis(4-methoxyphenyl)-6-(2,3-difluorophenoxy)pyridazine]",0.12 µM
13,"COc1ccc(-c2cc(Oc3c(F)c(F)c(F)c(F)c3F)nnc2-c2ccc(OC)cc2)cc1 [Example 12, 3,4-bis(4-methoxyphenyl)-6(2,3,4,5,6-pentafluorophenoxy)pyridazine]",0.04 µM
14,"COc1ccc(-c2nnc(Oc3cccc(F)c3F)cc2-c2ccccc2)cc1 [Example 25, 6-(2,3-difluorophenoxy)-3-(4-methoxyphenyl)-4-phenylpyridazine]",0.32 µM
15,"COc1ccc(-c2cc(Oc3cc(F)ccc3F)nnc2-c2ccc(OC)cc2)cc1 [Example 7, 3,4-bis(4-methoxyphenyl)-6-(2,5-difluorophenoxy)pyridazine]",0.18 µM
16,"COc1ccc(-c2cc(Oc3c(F)cccc3F)nnc2-c2ccc(OC)cc2)cc1 [Example 8, 3,4-bis(4-methoxyphenyl)-6-(2,6-difluorophenoxy)pyridazine]",0.35 µM
17,"COc1ccc(-c2cc(Oc3ccccc3C#N)nnc2-c2ccc(OC)cc2)cc1 [Example 18, 3,4-bis(4-methoxyphenyl)-6-(2-cyanophenoxy)pyridazine]",0.15 µM
18,"COc1ccc(-c2cc(Oc3ccccc3)nnc2-c2ccc(OC)cc2)cc1 [Example 3, 3,4-bis(4-methoxyphenyl)-6-(phenoxy)pyridazine]",0.1 µM
19,"COc1ccc(-c2cc(Oc3ccc(F)c(F)c3)nnc2-c2ccc(OC)cc2)cc1 [Example 9, 3,4-bis(4-methoxyphenyl)-6-(3,4-difluorophenoxy)pyridazine]",0.46 µM
20,"CCOC(=O)c1c(Cl)nnc(-c2ccc(OC)cc2)c1-c1ccc(OC)cc1 [Comp. Comp'd 2, reference compound]",4.16 µM
21,"CSc1ccc(-c2nnc(Oc3ccc(F)cc3F)cc2-c2ccc(Cl)cc2)cc1 [Example 33, 4-(4-chlorophenyl)-6-(2,4-difluorophenoxy)-3-[4-(methylthio)phenyl]pyridazine]",0.26 µM
22,"COc1ccc(-c2cc(Oc3c(F)c(F)cc(F)c3F)nnc2-c2ccc(OC)cc2)cc1 [Example 11, 3,4-bis(4-methoxyphenyl)-6-(2,3,5,6-tetrafluorophenoxy)pyridazine]",0.19 µM
